Tested on: late watergrass
Experiment: Test Example 1: herbicidal activity, application before weed generation under submerged conditions (Table 16, symbol A)
Assay type: in vivo, late watergrass (Echinochloa oryzicola)
Conditions: amount of applied herbicide 320 g/ha
Method in brief: (§1)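 Submerged Wagner pots (alluvial soil, 4 cm water) sown with weed seeds and planted with 2.5-leaf rice seedlings; emulsifiable concentrate diluted in water applied to water surface on sowing day. Held in greenhouse at 25-30 °C; injury scored 0-5 by herbicidal rate after three weeks.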

SMILES | Herbicidal effect, A: late watergrass
Cc1nn(C)c(=O)c(-c2c(-c3ccc(OCC(C)C)cc3)oc3ccc(F)cc23)c1O [9-027] | 5 (Herbicidal rate of 90% or more (almost completely withered))
CCOc1ccccc1-c1sc2cc(C)c(C)cc2c1-c1c(O)c(C)nn(C)c1=O [5-094] | 4 (Herbicidal rate of 70% or more and less than 90%)

Tested on: Japanese bulrush
Experiment: Test Example 1: herbicidal activity, application before weed generation under submerged conditions (Table 16, symbol B)
Assay type: in vivo, Japanese bulrush (Schoenoplectus juncoides)
Conditions: amount of applied herbicide 320 g/ha
Method in brief: as §1

SMILES | Herbicidal effect, B: Japanese bulrush
Cc1nn(C)c(=O)c(-c2c(-c3ccc(OCC(C)C)cc3)oc3ccc(F)cc23)c1O [9-027] | 5 (Herbicidal rate of 90% or more (almost completely withered))
CCOc1ccccc1-c1sc2cc(C)c(C)cc2c1-c1c(O)c(C)nn(C)c1=O [5-094] | 4 (Herbicidal rate of 70% or more and less than 90%)

Tested on: Japanese bulrush
Experiment: Test Example 2: herbicidal activity, application during weed generation under submerged conditions (Table 17, symbol B)
Assay type: in vivo, Japanese bulrush (Schoenoplectus juncoides)
Conditions: AAH 320 g/ha; application during weed generation, submerged conditions
Method in brief: (§2)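 3-wk visual-criteria score after one water-surface dose. Emulsion formulation, water-diluted to set rate; applied at 1–2 leaf stage; alluvial soil, 4 cm standing water; seeds co-sown; greenhouse 25–30° C.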

SMILES | herbicidal effect rating, B: Japanese bulrush
Cc1nn(C)c(=O)c(-c2c(-c3ccc(OCC(C)C)cc3)oc3ccc(F)cc23)c1O [9-027] | 3 (Herbicidal rate of 40% or more and less than 70%)
CCOc1ccccc1-c1sc2cc(C)c(C)cc2c1-c1c(O)c(C)nn(C)c1=O [5-094] | 3 (Herbicidal rate of 40% or more and less than 70%)

Tested on: oval-leafed pondweed
Experiment: Test Example 2: herbicidal activity, application during weed generation under submerged conditions (Table 17, symbol C)
Assay type: in vivo, oval-leafed pondweed (Monochoria vaginalis)
Conditions: AAH 320 g/ha; application during weed generation, submerged conditions
Method in brief: as §2

SMILES | herbicidal effect rating, C: oval-leafed pondweed
Cc1nn(C)c(=O)c(-c2c(-c3ccc(OCC(C)C)cc3)oc3ccc(F)cc23)c1O [9-027] | 4 (Herbicidal rate of 70% or more and less than 90%)
CCOc1ccccc1-c1sc2cc(C)c(C)cc2c1-c1c(O)c(C)nn(C)c1=O [5-094] | 3 (Herbicidal rate of 40% or more and less than 70%)

Tested on: green foxtail
Experiment: Test Example 4: herbicidal effect by soil treatment (Table 19, symbol G)
Assay type: in vivo, green foxtail (Setaria viridis)
Conditions: amount of applied herbicide 320 g/ha
Method in brief: (§3)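 In this soil treatment, the formulated compound reached the seeds only through the soil: seeds were buried about 1.5 cm deep in sterilized diluvial soil, then the diluted emulsion was sprayed over the surface. After three weeks at 25° C. to 30° C. in a greenhouse, effects were graded on criteria from an earlier test.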

SMILES | G: green foxtail, herbicidal effect grade
Cc1nn(C)c(=O)c(-c2c(-c3ccc(OCC(C)C)cc3)oc3ccc(F)cc23)c1O [9-027] | 5 (Herbicidal rate of 90% or more (almost completely withered))
CCOc1ccccc1-c1sc2cc(C)c(C)cc2c1-c1c(O)c(C)nn(C)c1=O [5-094] | 4 (Herbicidal rate of 70% or more and less than 90%)

Tested on: wild oat
Experiment: Test Example 4: herbicidal effect by soil treatment (Table 19, symbol I)
Assay type: in vivo, wild oat (Avena fatua)
Conditions: amount of applied herbicide 320 g/ha
Method in brief: as §3

SMILES | I: wild oat, herbicidal effect grade
Cc1nn(C)c(=O)c(-c2c(-c3ccc(OCC(C)C)cc3)oc3ccc(F)cc23)c1O [9-027] | 0 (Herbicidal rate of 5% or less (almost no effect))
CCOc1ccccc1-c1sc2cc(C)c(C)cc2c1-c1c(O)c(C)nn(C)c1=O [5-094] | 0 (Herbicidal rate of 5% or less (almost no effect))

Tested on: blackgrass
Experiment: Test Example 4: herbicidal effect by soil treatment (Table 19, symbol J)
Assay type: in vivo, blackgrass (Alopecurus myosuroides)
Conditions: amount of applied herbicide 320 g/ha
Method in brief: as §3

SMILES | J: blackgrass, herbicidal effect grade
Cc1nn(C)c(=O)c(-c2c(-c3ccc(OCC(C)C)cc3)oc3ccc(F)cc23)c1O [9-027] | 4 (Herbicidal rate of 70% or more and less than 90%)
CCOc1ccccc1-c1sc2cc(C)c(C)cc2c1-c1c(O)c(C)nn(C)c1=O [5-094] | 1 (Herbicidal rate of 5% or more and less than 20%)

Tested on: Italian ryegrass
Experiment: Test Example 4: herbicidal effect by soil treatment (Table 19, symbol K)
Assay type: in vivo, Italian ryegrass (Lolium multiflorum)
Conditions: amount of applied herbicide 320 g/ha
Method in brief: as §3

SMILES | K: Italian ryegrass, herbicidal effect grade
Cc1nn(C)c(=O)c(-c2c(-c3ccc(OCC(C)C)cc3)oc3ccc(F)cc23)c1O [9-027] | 4 (Herbicidal rate of 70% or more and less than 90%)
CCOc1ccccc1-c1sc2cc(C)c(C)cc2c1-c1c(O)c(C)nn(C)c1=O [5-094] | 3 (Herbicidal rate of 40% or more and less than 70%)

Tested on: velvetleaf
Experiment: Test Example 4: herbicidal effect by soil treatment (Table 19, symbol M)
Assay type: in vivo, velvetleaf (Abutilon theophrasti)
Conditions: amount of applied herbicide 320 g/ha
Method in brief: as §3

SMILES | M: velvetleaf, herbicidal effect grade
Cc1nn(C)c(=O)c(-c2c(-c3ccc(OCC(C)C)cc3)oc3ccc(F)cc23)c1O [9-027] | 5 (Herbicidal rate of 90% or more (almost completely withered))
CCOc1ccccc1-c1sc2cc(C)c(C)cc2c1-c1c(O)c(C)nn(C)c1=O [5-094] | 1 (Herbicidal rate of 5% or more and less than 20%)

Tested on: redroot pigweed
Experiment: Test Example 4: herbicidal effect by soil treatment (Table 19, symbol N)
Assay type: in vivo, redroot pigweed (Amaranthus retroflexus)
Conditions: amount of applied herbicide 320 g/ha
Method in brief: as §3

SMILES | N: redroot pigweed, herbicidal effect grade
Cc1nn(C)c(=O)c(-c2c(-c3ccc(OCC(C)C)cc3)oc3ccc(F)cc23)c1O [9-027] | 5 (Herbicidal rate of 90% or more (almost completely withered))
CCOc1ccccc1-c1sc2cc(C)c(C)cc2c1-c1c(O)c(C)nn(C)c1=O [5-094] | 3 (Herbicidal rate of 40% or more and less than 70%)

Tested on: lambsquarters
Experiment: Test Example 4: herbicidal effect by soil treatment (Table 19, symbol O)
Assay type: in vivo, lambsquarters (Chenopodium album)
Conditions: amount of applied herbicide 320 g/ha
Method in brief: as §3

SMILES | O: lambsquarters, herbicidal effect grade
Cc1nn(C)c(=O)c(-c2c(-c3ccc(OCC(C)C)cc3)oc3ccc(F)cc23)c1O [9-027] | 5 (Herbicidal rate of 90% or more (almost completely withered))
CCOc1ccccc1-c1sc2cc(C)c(C)cc2c1-c1c(O)c(C)nn(C)c1=O [5-094] | 3 (Herbicidal rate of 40% or more and less than 70%)

Tested on: persian speedwell
Experiment: Test Example 4: herbicidal effect by soil treatment (Table 19, symbol R)
Assay type: in vivo, Persian speedwell (Veronica persica)
Conditions: amount of applied herbicide 320 g/ha
Method in brief: as §3

SMILES | R: persian speedwell, herbicidal effect grade
Cc1nn(C)c(=O)c(-c2c(-c3ccc(OCC(C)C)cc3)oc3ccc(F)cc23)c1O [9-027] | 5 (Herbicidal rate of 90% or more (almost completely withered))
CCOc1ccccc1-c1sc2cc(C)c(C)cc2c1-c1c(O)c(C)nn(C)c1=O [5-094] | 3 (Herbicidal rate of 40% or more and less than 70%)

Tested on: southern crabgrass
Experiment: Test Example 5: herbicidal effect by foliage application, plastic box (Table 20, symbol F)
Assay type: in vivo, southern crabgrass (Digitaria ciliaris)
Conditions: foliage application, 320 g/ha, three weeks after application
Method in brief: (§4)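 Plants were sown into sterilized diluvial soil under about 1.5 cm cover and kept in a greenhouse at 25° C. to 30° C. Fourteen days on, foliage received an even spray of the diluted emulsion. Herbicidal or crop effect was judged three weeks afterwards.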

SMILES | herbicidal effect on southern crabgrass (F)
Cc1nn(C)c(=O)c(-c2c(-c3ccc(OCC(C)C)cc3)oc3ccc(F)cc23)c1O [9-027] | 5 (Herbicidal rate of 90% or more (almost completely withered))
CCOc1ccccc1-c1sc2cc(C)c(C)cc2c1-c1c(O)c(C)nn(C)c1=O [5-094] | 5 (Herbicidal rate of 90% or more (almost completely withered))

Tested on: green foxtail
Experiment: Test Example 5: herbicidal effect by foliage application, plastic box (Table 20, symbol G)
Assay type: in vivo, green foxtail (Setaria viridis)
Conditions: foliage application, 320 g/ha, three weeks after application
Method in brief: as §4

SMILES | herbicidal effect on green foxtail (G)
Cc1nn(C)c(=O)c(-c2c(-c3ccc(OCC(C)C)cc3)oc3ccc(F)cc23)c1O [9-027] | 5 (Herbicidal rate of 90% or more (almost completely withered))
CCOc1ccccc1-c1sc2cc(C)c(C)cc2c1-c1c(O)c(C)nn(C)c1=O [5-094] | 5 (Herbicidal rate of 90% or more (almost completely withered))

Tested on: barnyard grass
Experiment: Test Example 5: herbicidal effect by foliage application, plastic box (Table 20, symbol H)
Assay type: in vivo, barnyard grass (Echinochloa crus-galli)
Conditions: foliage application, 320 g/ha, three weeks after application
Method in brief: as §4

SMILES | herbicidal effect on barnyard grass (H)
Cc1nn(C)c(=O)c(-c2c(-c3ccc(OCC(C)C)cc3)oc3ccc(F)cc23)c1O [9-027] | 5 (Herbicidal rate of 90% or more (almost completely withered))
CCOc1ccccc1-c1sc2cc(C)c(C)cc2c1-c1c(O)c(C)nn(C)c1=O [5-094] | 5 (Herbicidal rate of 90% or more (almost completely withered))

Tested on: wild oat
Experiment: Test Example 5: herbicidal effect by foliage application, plastic box (Table 20, symbol I)
Assay type: in vivo, wild oat (Avena fatua)
Conditions: foliage application, 320 g/ha, three weeks after application
Method in brief: as §4

SMILES | herbicidal effect on wild oat (I)
Cc1nn(C)c(=O)c(-c2c(-c3ccc(OCC(C)C)cc3)oc3ccc(F)cc23)c1O [9-027] | 4 (Herbicidal rate of 70% or more and less than 90%)
CCOc1ccccc1-c1sc2cc(C)c(C)cc2c1-c1c(O)c(C)nn(C)c1=O [5-094] | 1 (Herbicidal rate of 5% or more and less than 20%)

Tested on: blackgrass
Experiment: Test Example 5: herbicidal effect by foliage application, plastic box (Table 20, symbol J)
Assay type: in vivo, blackgrass (Alopecurus myosuroides)
Conditions: foliage application, 320 g/ha, three weeks after application
Method in brief: as §4

SMILES | herbicidal effect on blackgrass (J)
Cc1nn(C)c(=O)c(-c2c(-c3ccc(OCC(C)C)cc3)oc3ccc(F)cc23)c1O [9-027] | 5 (Herbicidal rate of 90% or more (almost completely withered))
CCOc1ccccc1-c1sc2cc(C)c(C)cc2c1-c1c(O)c(C)nn(C)c1=O [5-094] | 4 (Herbicidal rate of 70% or more and less than 90%)

Tested on: Italian ryegrass
Experiment: Test Example 5: herbicidal effect by foliage application, plastic box (Table 20, symbol K)
Assay type: in vivo, Italian ryegrass (Lolium multiflorum)
Conditions: foliage application, 320 g/ha, three weeks after application
Method in brief: as §4

SMILES | herbicidal effect on Italian ryegrass (K)
Cc1nn(C)c(=O)c(-c2c(-c3ccc(OCC(C)C)cc3)oc3ccc(F)cc23)c1O [9-027] | 5 (Herbicidal rate of 90% or more (almost completely withered))
CCOc1ccccc1-c1sc2cc(C)c(C)cc2c1-c1c(O)c(C)nn(C)c1=O [5-094] | 5 (Herbicidal rate of 90% or more (almost completely withered))

Tested on: windgrass
Experiment: Test Example 5: herbicidal effect by foliage application, plastic box (Table 20, symbol L)
Assay type: in vivo, windgrass (Apera spica-venti)
Conditions: foliage application, 320 g/ha, three weeks after application
Method in brief: as §4

SMILES | herbicidal effect on windgrass (L)
Cc1nn(C)c(=O)c(-c2c(-c3ccc(OCC(C)C)cc3)oc3ccc(F)cc23)c1O [9-027] | 5 (Herbicidal rate of 90% or more (almost completely withered))
CCOc1ccccc1-c1sc2cc(C)c(C)cc2c1-c1c(O)c(C)nn(C)c1=O [5-094] | 4 (Herbicidal rate of 70% or more and less than 90%)

Tested on: velvetleaf
Experiment: Test Example 5: herbicidal effect by foliage application, plastic box (Table 20, symbol M)
Assay type: in vivo, velvetleaf (Abutilon theophrasti)
Conditions: foliage application, 320 g/ha, three weeks after application
Method in brief: as §4

SMILES | herbicidal effect on velvetleaf (M)
Cc1nn(C)c(=O)c(-c2c(-c3ccc(OCC(C)C)cc3)oc3ccc(F)cc23)c1O [9-027] | 5 (Herbicidal rate of 90% or more (almost completely withered))
CCOc1ccccc1-c1sc2cc(C)c(C)cc2c1-c1c(O)c(C)nn(C)c1=O [5-094] | 4 (Herbicidal rate of 70% or more and less than 90%)

Source: patent publication US20230085307A1, “PYRIDAZINONE COMPOUND AND HERBICIDE” (NISSAN CHEMICAL CORPORATION, priority 2019, published 2023)
